Measurements as given in patent publication US11103510B2, “JAK1 pathway inhibitors for the treatment of cytokine-related disorders” (Incyte Corporation, priority 2018, dated 2021).

Key:
[1] = molecular target: human JAK1 (a.a. 837-1142) (Homo sapiens, UniProt P23458); experiment: In vitro JAK kinase assay (HTRF), JAK1; type: biochemical; settings: 1 mM ATP
Method: (§1) The catalytic activity of JAK1, JAK2 or JAK3 was assayed by measuring the phosphorylation of a biotinylated peptide. The phosphorylated peptide was detected by homogenous time resolved fluorescence (HTRF). […] Reactions are carried out at room temperature for 1 hour and then stopped with 20 μL 45 mM EDTA, 300 nM SA-APC, 6 nM Eu-Py20 in assay buffer (Perkin Elmer, Boston, Mass.). Binding to the Europium labeled antibody takes place for 40 minutes and HTRF signal was measured on a Fusion plate reader (Perkin Elmer, Boston, Mass.).

[2] = molecular target: human JAK2 (a.a. 828-1132) (Homo sapiens (Human), UniProt O60674); experiment: In vitro JAK kinase assay (HTRF), JAK2, for JAK2/JAK1 ratio; type: biochemical; settings: IC50 ratio, 1 mM ATP
Method: as §1

[3] = tested on: anti-CD3 antibody-induced cytokine release syndrome (CRS) in BALB/c mice; experiment: Anti-CD3 antibody-induced cytokine release syndrome in BALB/c mice; type: in vivo; settings: 60 and 120 mg/kg PO 1 h before anti-CD3 (10 μg IV); plasma 1.5 h after anti-CD3; FIG. 1
Source text: JAK1 pathway inhibitors can be tested for efficacy against CRS according to an in vivo assay described in Ferran, C. et al. Clin. Exp. Immunol. 1991, 86, 537-543. Specifically, this study can test the ability of a compound to reduce or ameliorate anti-CD3 antibody-induced cytokine release syndrome (CRS) in BALB/c mice. The antibody, clone 145-2C11, is an immunoglobin G (IgG) hamster MoAb that is specific for the ε chain of the CD3 murine molecule (Léo, O. et al., Proc. Natl. Acad. Sci. USA, 1987, […], 1374). Treatment with 145-2C11 induces high affinity IL-2 receptors at the surface of spleen T-cells and results in a release of some cytokines such as tumor necrosis factor (TNF-α), IL-2, IL-3, IL-6, and interferon-gamma (IFN-γ) (Ferran, et al. Eur. J. Immunol. 1990, 20, 509-515 and Algre, M. et al., Eur. J. Immunol., 1990, 707). […]
The main objective of this study was to test the ability of a JAK1 pathway inhibitor (e.g., Compound 1) to reduce or ameliorate anti-CD3 antibody-induced cytokine release syndrome (CRS) in BALB/c mice. […] Animals were weighed prior to test article dosing, and monitored for the duration of the experiment. […]
After the administration of the anti-CD3 antibody, animals were closely monitored for signs of distress due to the resulting systemic inflammatory response. […]

[4] = tested on: Con A-induced cytokine release syndrome (CRS) in BALB/c mice; experiment: Concanavalin A induced cytokine release syndrome in BALB/c mice; type: in vivo; settings: plasma 2 h after Con A
Source text: Concanavalin A (Con A) is a selective T lymphocyte mitogen resulting in broad inflammatory cytokine release and proliferation of CD4 and CD8 T-cells. Injection of Con-A has been shown in the literature to induce cytokine release syndrome and serves as a model with which to test the efficacy of cytokine release syndrome therapies (Gantner, F. at al. Hepatology, 1995, 21, 190-198). The mitogen response is dependent on expression of the T-cell receptor.
In particular, this study tests the ability of a selective JAK1 inhibitor (e.g., Compound 1, Table 1) to reduce or ameliorate Con A-induced cytokine release syndrome (CRS) in BALB/c mice. A total of forty (40) BALB/c mice were used for this one day study. Animals were weighed prior to test article dosing, and monitored for the duration of the experiment. On day 0, Sixty (60) minutes prior to Con A administration, vehicle (0.5% methylcellulose) or Compound 1 (60 and 120 mg/kg) was given in a single dose via oral gavage (PO) to animals in groups 2-4 as detailed in Table 2A. Group 1 served as naïve controls and were not treated. Following the […] pre-treatment with vehicle or Compound 1, animals in Groups 2-4 were administered 20 mg/kg of Con A via intravenous injection (IV) in order to induce CRS. All animals were euthanized via CO2 inhalation two hours after Con A administration. Whole blood was collected via cardiac puncture into K2EDTA tubes and stored on ice until plasma processing occurs. Plasma was collected and stored at −80° C. until cytokine multiplex was performed.
Animals were weighed and Con-A dose (20 mg/kg) calculated.
Vehicle and Compound 1 were prepared at corresponding doses.
On day 0, animals were dosed with vehicle or Compound 1, as in Table 2A. Group 1 served as the naïve controls and were not treated. Group 2 received a single dose of vehicle (0.5% methylcellulose) via PO at 0.1 mL/20 g. Group 3 received a single dose of 60 mg/kg Compound 1 via PO at 0.1 mL/20 g. Group 4 received a single dose of 120 mg/kg Compound 1 via PO at 0.1 mL/20 g.
Sixty (60) minutes after test article administration, Con-A was administered via IV injection to Groups 2-4. Each animal in Groups 2-4 received 20 mg/kg of Con-A in 0.2 mL.
After the administration of Con-A, animals were closely monitored for signs of distress due to the resulting systemic inflammatory response.
Two hours after Con-A administration all animals were euthanized by CO2 inhalation.
Upon sacrifice, whole blood was collected from each animal via cardiac puncture into K2EDTA tubes. The blood was centrifuged and the plasma collected in cryovials. The plasma was frozen and stored at −80° C. for the downstream cytokine multiplex assay.
Plasma samples are thawed on ice and used for a cytokine multiplex according to the manufacturer's protocol (ThermoFisher).
An unpaired one-way analysis of variance (ANOVA) incorporating Sidak's multiple test comparison was performed using GraphPad Prism (version 4.00; GraphPad Software, San Diego Calif., USA). A value of p<0.05 was considered significant.

Chain of human JAK2 (a.a. 828-1132) (O60674 828-1132): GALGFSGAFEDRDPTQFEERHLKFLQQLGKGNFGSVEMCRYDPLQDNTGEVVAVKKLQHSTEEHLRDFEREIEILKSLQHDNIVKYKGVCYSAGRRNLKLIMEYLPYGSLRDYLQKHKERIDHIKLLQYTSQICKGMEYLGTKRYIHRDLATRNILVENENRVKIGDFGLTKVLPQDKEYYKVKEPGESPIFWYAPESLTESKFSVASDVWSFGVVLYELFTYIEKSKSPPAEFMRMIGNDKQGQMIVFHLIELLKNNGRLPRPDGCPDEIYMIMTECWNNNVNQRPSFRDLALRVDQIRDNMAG

**Q.** What does the source list for `N#CCC1(n2cc(-c3ncnc4[nH]ccc34)cn2)CN(C2CCN(C(=O)c3ccnc(C(F)(F)F)c3F)CC2)C1` [Compound 1, {1-{1-[3-Fluoro-2-(trifluoromethyl)isonicotinoyl]piperidin-4-yl}-3-[4-(7H-pyrrolo[2,3-d]pyrimidin-4-yl)-1H-pyrazol-1-yl]azetidin-3-yl}acetonitrile]?
**A.** IC50 [1]: < 10 nM; JAK2/JAK1 [2]: >10; IL-6 concentrations within the blood compartment [3]: dose-dependently inhibited; IL-6 concentrations within the blood compartment ([4]; 60 and 120 mg/kg PO 60 min before Con A (20 mg/kg IV), FIG. 2A): dose-dependently inhibited; IFNγ (T-cell derived cytokine) ([4]; 60 and 120 mg/kg PO before Con A, FIG. 2B): significantly inhibited; GM-CSF (T-cell derived cytokine) ([4]; 60 and 120 mg/kg PO before Con A, FIG. 2C): significantly inhibited; IL-12 (monocyte and/or macrophage derived cytokine) ([4]; 60 and 120 mg/kg PO before Con A, FIG. 3A): Statistically significant dose-dependent IL-12 reduction; IL-1β (monocyte and/or macrophage derived cytokine) ([4]; 60 and 120 mg/kg PO before Con A, FIG. 3B): trends for treatment effect; IL-18 (monocyte and/or macrophage derived cytokine) ([4]; 60 and 120 mg/kg PO before Con A, FIG. 3C): trends for treatment effect; IL-5 ([4]; 60 and 120 mg/kg PO before Con A, FIG. 4): unaffected
